From patent US20260007684A1, “AMIDE DERIVATIVES FOR INHIBITING NLRP3 AND USES THEREOF” (Ventus Therapeutics U.S., Inc., priority 2023, published 2026)

molecular target: human NLRP3 (Homo sapiens (Human), UniProt Q96P20); assay: Scintillation Proximity (SPA) NLRP3 Assay: displacement of 3H-MCC950; type: binding; conditions: SPA IC50, displacement of 3H-MCC950
Sequence (Q96P20 whole entry): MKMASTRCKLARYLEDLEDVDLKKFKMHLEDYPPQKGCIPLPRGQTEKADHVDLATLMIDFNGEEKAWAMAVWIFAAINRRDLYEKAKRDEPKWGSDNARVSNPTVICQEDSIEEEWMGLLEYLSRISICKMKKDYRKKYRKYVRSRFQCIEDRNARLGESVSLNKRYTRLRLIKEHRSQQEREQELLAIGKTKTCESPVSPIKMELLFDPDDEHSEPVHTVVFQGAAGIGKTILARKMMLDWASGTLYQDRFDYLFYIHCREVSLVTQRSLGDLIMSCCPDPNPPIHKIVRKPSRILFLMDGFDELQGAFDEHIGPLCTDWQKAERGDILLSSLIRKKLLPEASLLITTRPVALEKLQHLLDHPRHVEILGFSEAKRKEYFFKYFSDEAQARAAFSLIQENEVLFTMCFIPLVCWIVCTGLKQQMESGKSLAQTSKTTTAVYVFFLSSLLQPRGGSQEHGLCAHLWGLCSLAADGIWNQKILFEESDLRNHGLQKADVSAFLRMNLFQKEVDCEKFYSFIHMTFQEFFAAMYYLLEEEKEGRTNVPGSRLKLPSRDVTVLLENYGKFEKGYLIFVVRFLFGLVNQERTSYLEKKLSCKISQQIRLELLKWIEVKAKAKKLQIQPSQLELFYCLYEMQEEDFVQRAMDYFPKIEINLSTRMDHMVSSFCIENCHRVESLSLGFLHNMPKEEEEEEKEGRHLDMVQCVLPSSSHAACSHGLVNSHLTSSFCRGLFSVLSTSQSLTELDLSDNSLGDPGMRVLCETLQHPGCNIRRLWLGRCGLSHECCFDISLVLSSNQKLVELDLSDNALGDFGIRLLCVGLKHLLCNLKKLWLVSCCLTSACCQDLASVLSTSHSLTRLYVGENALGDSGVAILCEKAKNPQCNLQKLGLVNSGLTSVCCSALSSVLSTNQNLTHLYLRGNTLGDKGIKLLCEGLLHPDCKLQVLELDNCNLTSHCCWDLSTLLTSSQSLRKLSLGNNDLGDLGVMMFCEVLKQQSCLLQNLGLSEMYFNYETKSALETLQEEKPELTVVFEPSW

SMILES | IC50 [µM]
O=C(N[C@H]1CCC[C@@H]2CC[C@H]1N2c1nnn[nH]1)C1(c2ccc(Cl)cc2)CC1 (single isomer, unassigned) [9B*, N-(9-(1H-tetrazol-5-yl)-9-azabicyclo[4.2.1]nonan-2-yl)-1-(4-chlorophenyl)cyclopropane-1-carboxamide] | > 100
O=C(N[C@H]1CCC[C@H]2CC[C@@H]1N2c1nnn[nH]1)C1(c2ccc(C(F)(F)F)cc2O)CC1 [88D*, N-((1S,2S,6S)-9-(1H-tetrazol-5-yl)-9-azabicyclo[4.2.1]nonan-2-yl)-1-(2-hydroxy-4-(trifluoromethyl)phenyl)cyclopropane-1-carboxamide] | 1 to 10
O=C(N[C@H]1CCC[C@@H]2CC[C@H]1N2c1nnn[nH]1)C1(c2ccc(C3CC3)cc2O)CC1 [93B*, N-((1R,2S,6R)-9-(1H-tetrazol-5-yl)-9-azabicyclo[4.2.1]nonan-2-yl)-1-(4-cyclopropyl-2-hydroxyphenyl)cyclopropane-1-carboxamide] | 1 to 10

same assay, conditions: displacement of 3H-MCC950; read-out: SPA IC50

SMILES | IC50 [µM]
C[C@H]1C[C@@H](NC(=O)C2(c3ccc(C4CC4)c(F)c3O)CC2)[C@@H]2CC[C@H]1N2c1nnn[nH]1 [83C*, 1-(4-cyclopropy1-3-fluoro-2-hydroxyphenyl)-N-((1S,2R,4S,5R)-4-methy1-8-(1H-tetrazol-5-yl)-8-azabicyclo[3.2.1]octan-2-yl)cyclopropane-1-carboxamide] | > 100
O=C(N[C@@H]1C[C@@H](F)CN(c2nnn[nH]2)C1)C1(c2ccc(Cl)cc2)CC1 [Compound 44C, 1-(4-chlorophenyl)-N-[(3R,5R)-5-fluoro-1-(1H-tetrazol-5-yl)-3-piperidyl]cyclopropanecarboxamide] | 10 to 50
C[C@H]1C[C@@H](NC(=O)C2(c3ccc(SC(F)F)cc3)CC2)[C@@H]2CC[C@H]1N2c1nnn[nH]1 [85C*, 1-(4-((difluoromethyl)thio)phenyl)-N-((1S,2R,4S,5R)-4-methyl-8-(1H-tetrazol-5-yl)-8-azabicyclo[3.2.1]octan-2-yl)cyclopropane-1-carboxamide] | > 100
C[C@@H]1CCN(c2nnn[nH]2)C[C@@H](NC(=O)C2(c3ccc(Cl)c(F)c3O)CC2)C1 (single isomer, unassigned) [18B*, 1-(4-chloro-3-fluoro-2-hydroxyphenyl)-N-(5-methyl-1-(1H-tetrazol-5-yl)azepan-3-yl)cyclopropane-1-carboxamide] | 1 to 10
C[C@H]1CCN(c2nnn[nH]2)C[C@H](NC(=O)C2(c3ccc(C(F)(F)F)c(OC(F)F)c3)CC2)C1 (single isomer, unassigned) [54C*] | > 100
C[C@H]1C[C@H](NC(=O)C2(c3ccc(C4CC4(F)F)cc3)CC2)[C@@H]2CC[C@H]1N2c1nnn[nH]1 (single isomer, unassigned) [37D*] | > 100
C[C@H]1C[C@@H](NC(=O)C2(c3ccc(Cl)cc3)CC2)[C@@H]2CC[C@H]1N2c1nnn[nH]1 [80C*, 1-(4-chlorophenyl)-N-((1S,2R,4S,5R)-4-methyl-8-(1H-tetrazol-5-yl)-8-azabicyclo[3.2.1]octan-2-yl)cyclopropane-1-carboxamide] | > 100
C[C@@H]1CC[C@@H](NC(=O)C2(c3ccc(Cl)cc3)CC2)CN(c2nnn[nH]2)C1 (single isomer, unassigned) [36C*, 1-(4-chlorophenyl)-N-(6-methyl-1-(1H-tetrazol-5-yl)azepan-3-yl)cyclopropane-1-carboxamide] | > 100
C[C@H]1C[C@H](NC(=O)C2(c3ccc(C4CC4)c(F)c3O)CC2)[C@@H]2CC[C@H]1N2c1nnn[nH]1 [83D*, 1-(4-cyclopropyl-3-fluoro-2-hydroxyphenyl)-N-((1S,2S,4S,5R)-4-methy1-8-(1H-tetrazol-5-yl)-8-azabicyclo[3.2.1]octan-2-yl)cyclopropane-1-carboxamide] | > 100
C[C@H]1CCN(c2nnn[nH]2)C[C@H](NC(=O)C2(c3ccc(C(F)(F)F)cc3F)CC2)C1 (single isomer, unassigned) [68C*] | > 100
C[C@H]1C[C@H](NC(=O)C2(c3ccc(C4CC4)cc3)CC2)[C@@H]2CC[C@H]1N2c1nnn[nH]1 [81D*] | 10 to 50
Cc1c(Cl)ccc(C2(C(=O)N[C@H]3C[C@@H](C)CCN(c4nnn[nH]4)C3)CC2)c1O (single isomer, unassigned) [21D*, 1-(4-chloro-2-hydroxy-3-methylphenyl)-N-(5-methyl-1-(1H-tetrazol-5-yl)azepan-3-yl)cyclopropane-1-carboxamide] | 10 to 50
C[C@@H]1CC[C@H](NC(=O)C2(c3ccc(C(F)(F)F)cc3O)CC2)CN(c2nnn[nH]2)C1 [89D*, 1-(2-hydroxy-4-(trifluoromethyl)phenyl)-N-((3S,6R)-6-methyl-1-(1H-tetrazol-5-yl)azepan-3-yl)cyclopropane-1-carboxamide] | 1 to 10
C[C@H]1CC[C@H](NC(=O)C2(c3ccc(C4CC4)cc3O)CC2)CN(c2nnn[nH]2)C1 (single isomer, unassigned) [91B*] | < 1
CC(C)c1ccc(C2(C(=O)N[C@H]3C[C@H](C)CCN(c4nnn[nH]4)C3)CC2)c(O)c1 (single isomer, unassigned) [27B*, 1-(2-hydroxy-4-isopropylphenyl)-N-(5-methyl-1-(1H-tetrazol-5-yl)azepan-3-yl)cyclopropane-1-carboxamide] | 1 to 10
C[C@H]1C[C@@H](NC(=O)C2(c3ccc(OC(F)(F)F)cc3)CC2)[C@@H]2CC[C@H]1N2c1nnn[nH]1 [82C*, N-((1S,2R,4S,5R)-4-methyl-8-(1H-tetrazol-5-yl)-8-azabicyclo[3.2.1]octan-2-yl)-1-(4-(trifluoromethoxy)phenyl)cyclopropane-1-carboxamide] | > 100
C[C@@H]1CC[C@H](NC(=O)C2(c3ccc(C4CC4)cc3O)CC2)CN(c2nnn[nH]2)C1 (single isomer, unassigned) [91D*] | 1 to 10
C[C@H]1CCN(c2nnn[nH]2)C[C@@H](NC(=O)C2(c3ccc(Br)cc3)CC2)C1 (single isomer, unassigned) [59D*] | 1 to 10

SMILES | IC50 [µM]
C[C@H]1CCN(c2nnn[nH]2)C[C@H](NC(=O)C2(c3ccc(OC(F)(F)F)c(F)c3O)CC2)C1 (single isomer, unassigned) [28C*, 1-(3-fluoro-2-hydroxy-4-(trifluoromethoxy)phenyl)-N-(5-methyl-1-(1H-tetrazol-5-yl)azepan-3-yl)cyclopropane-1-carboxamide] | > 100
C[C@@H]1CCN(c2nnn[nH]2)C[C@@H](NC(=O)C2(c3ccc(SC(F)(F)F)cc3)CC2)C1 (single isomer, unassigned) [69B*] | 10 to 50
C[C@H]1CCN(c2nnn[nH]2)C[C@H](NC(=O)C2(c3ccc(C(F)(F)F)cc3)CC2)C1 (single isomer, unassigned) [61B*] | 1 to 10
O=C(N[C@H]1CN(c2nnn[nH]2)CC[C@@H]1F)C1(c2ccc(Cl)cc2)CC1 [Compound 50C, 1-(4-chlorophenyl)-N-[(3S,4S)-4-fluoro-1-(1H-tetrazol-5-yl)-3-piperidyl]cyclopropanecarboxamide] | 10 to 50
C[C@@H]1CCN(c2nnn[nH]2)C[C@@H](NC(=O)C2(c3ccc(OC(F)(F)F)c(F)c3O)CC2)C1 (single isomer, unassigned) [28B*, 1-(3-fluoro-2-hydroxy-4-(trifluoromethoxy)phenyl)-N-(5-methyl-1-(1H-tetrazol-5-yl)azepan-3-yl)cyclopropane-1-carboxamide] | 1 to 10
C[C@H]1CCN(c2nnn[nH]2)C[C@H](NC(=O)C2(c3ccc(Br)cc3)CC2)C1 (single isomer, unassigned) [59C*] | 50 to 100
C[C@@H]1CCN(c2nnn[nH]2)C[C@@H](NC(=O)C2(c3ccc(OC(F)F)c(F)c3)CC2)C1 (single isomer, unassigned) [73B*] | 1 to 10
O=C(N[C@H]1CC[C@@H]2CC[C@H]1N2c1nnn[nH]1)C1(c2ccc(C(F)(F)F)cc2O)CC1 (single isomer, unassigned) [34B*] | 1 to 10
Cc1ccc(C2(C(=O)N[C@@H]3C[C@@H](C)CCN(c4nnn[nH]4)C3)CC2)c(O)c1F (single isomer, unassigned) [22C*, 1-(3-fluoro-2-hydroxy-4-methylphenyl)-N-(5-methyl-1-(1H-tetrazol-5-yl)azepan-3-yl)cyclopropane-1-carboxamide] | 10 to 50
O=C(N[C@H]1CCCN(c2nnn[nH]2)C1)C1(c2ccc(Cl)cc2)CC1 [Compound 10B, (S)—N-(1-(1H-tetrazol-5-yl)piperidin-3-yl)-1-(4-chlorophenyl)cyclopropane-1-carboxamide] | > 100
C[C@H]1CCN(c2nnn[nH]2)C[C@H](NC(=O)C2(c3ccc(OC(F)F)cc3O)CC2)C1 (single isomer, unassigned) [70C*] | 10 to 50
C[C@@H]1CCN(c2nnn[nH]2)C[C@@H](NC(=O)C2(c3ccc(C4CCC4)cc3)CC2)C1 (single isomer, unassigned) [8B*, 1-(4-cyclobutylphenyl)-N-(5-methyl-1-(1H-tetrazol-5-yl)azepan-3-yl)cyclopropane-1-carboxamide] | 10 to 50
C[C@@H]1C[C@H](NC(=O)C2(c3ccc(OC(F)F)cc3)CC2)[C@@H]2CC[C@H]1N2c1nnn[nH]1 (single isomer, unassigned) [35H*] | > 100
C[C@H]1CCN(c2nnn[nH]2)C[C@@H](NC(=O)C2(c3ccc(C(F)(F)F)cc3F)CC2)C1 (single isomer, unassigned) [68D*] | 1 to 10
C[C@@H]1CCN(c2nnn[nH]2)C[C@@H](NC(=O)C2(c3c(F)cc(Cl)cc3F)CC2)C1 (single isomer, unassigned) [72B*] | 1 to 10
C[C@@H]1CCN(c2nnn[nH]2)C[C@@H](NC(=O)C2(c3ccc(OC(F)(F)F)cc3F)CC2)C1 (single isomer, unassigned) [64B*] | 10 to 50
C[C@H]1CCN(c2nnn[nH]2)C[C@H](NC(=O)C2(c3ccc(C(F)(F)F)c(F)c3O)CC2)C1 (single isomer, unassigned) [31C*, 1-(3-fluoro-2-hydroxy-4-(trifluoromethyl)phenyl)-N-(5-methyl-1-(1H-tetrazol-5-yl)azepan-3-yl)cyclopropane-1-carboxamide] | 10 to 50

same assay, conditions: read-out: SPA IC50

SMILES | IC50 [µM]
Cn1nnc(-c2cccc(NC(=O)C3(c4ccc(Cl)cc4)CC3)c2)n1 [Comparative Example E2, 1-(4-chlorophenyl)-N-(3-(2-methyl-2H-tetrazol-5-yl)phenyl)cyclopropane-1-carboxamide, reference compound] | > 500
